The test system of one data set is HepG2 cells. The data set can be described thus: In vitro cytotoxicity evaluation on HepG2 cell line (MTT method). Type of data set: cell-based, human. Conditions: for CC50: Homo sapiens, 72 h incubation with product, mean ± SD of three independent experiments, read-out: Cancer cell toxicity HepG2 CC50; for CC50 / antiproliferative activity on HepG2 cells (in words): HepG2 cell line, MTT; for antiproliferative effect times higher toward the HepG2 than toward the CHO cell line: ratio CHO CC50 / HepG2 CC50. Here is the method: (§1) The antiproliferative activity of the synthesized compounds was evaluated against two different cancer cell lines, CHO and HepG2, employing the MTT method and doxorubicin as a reference drug. The cytotoxic activity in vitro was expressed as CC50 (µM), the concentration of compound that inhibits proliferation of cells by 50% as compared to untreated cells.
(§2) CHO and HepG2 cell lines were maintained at 37 °C, 6% CO2, 14% O2, 80% N2, with 90% humidity in RPMI supplemented with 10% fœtal bovine serum, 1% L-glutamine (200 mM) and penicillin (100 U/mL) / streptomycin (100 µg/mL) (complete RPMI medium).
(§3) In vitro cytotoxicity evaluation on CHO and HepG2 cell lines was performed according to the method described by Mosmann with slight modifications. Briefly, 5 × 10^3 cells in 100 µL of culture medium (RPMI + […]) were inoculated into each well of 96-well plates and incubated at 37 °C in a humidified 6% CO2, 14% O2, 80% N2 atmosphere. After 24 h incubation, 100 µL of medium with various product concentrations was added and the plates were incubated from 24 h (CHO) to 72 h (HepG2). Duplicate assays were performed for each sample. At the end of the treatment and incubation, the medium was aspirated from the wells and 10 µL yellow MTT (3-(4,5-dimethyl-2-thiazolyl)-2,5-diphenyl-2H-tetrazolium bromide) solution (5 mg MTT/mL in PBS) was added to each well with 100 µL of medium without fœtal bovine serum. Cells were incubated for 2 h at 37 °C to allow MTT […] by mitochondrial dehydrogenase in the viable cells. After 2 h, the MTT solution was aspirated and DMSO (100 µL) was added to each well to dissolve the resulting blue formazan crystals. Plates were then shaken vigorously (300 rpm) for a few minutes. The absorbance was measured at 570 nm with 630 nm as reference wavelength, using a microplate spectrophotometer. DMSO was used as blank and doxorubicin as positive control.
(§4) Cell viability was calculated as percentage of control (cells incubated without compound). The 50% cytotoxic concentrations (CHO CC50 and HepG2 CC50) were determined by non-linear regression analysis processed on dose-response curves, using the Table Curve software 2D v.5.0. CC50 values represent the mean value calculated from three independent experiments.

The subject of a further data set is CHO cells. Briefly: In vitro cytotoxicity evaluation on CHO cell line (MTT method). Type of data set: cell-based. Conditions: for CC50: Cricetulus griseus, 24 h incubation with product, mean ± SD of three independent experiments, read-out: Cancer cell toxicity CHO CC50. Here is the method:
as §1, §2, §3, §4
On the technique in general: Tetrazolium dyes change colour on reduction, which living cells bring about.

For `Cc1nc(CS(=O)(=O)c2ccccc2)c([N+](=O)[O-])s1` [2a, 2-methyl-5-nitro-4-phenylsulfonylmethyl-1,3-thiazole], the values for the cytotoxic concentration (CC50) in the data set with HepG2 cells and in the data set on CHO cells were 24.6 µM and 323 µM, respectively.

`Cc1ccc(S(=O)(=O)Cc2nc(C)sc2[N+](=O)[O-])cc1` [2b, 2-Methyl-5-nitro-4-(tosylmethyl)-1,3-thiazole]: the melting point (in general, the temperature, or range, at which the solid turns liquid) stood at 179 °C. For the same compound, in the data set on HepG2 cells, the cytotoxic concentration (CC50) (usually the concentration that lowers cell viability or growth by half) is 7.7 µM and the “antiproliferative effect times higher toward the HepG2 than toward the CHO cell line” value was 31 times. Further, the cytotoxic concentration (CC50) with CHO cells worked out at 237 µM.

In the case of `Cc1nc(CS(=O)(=O)c2ccc(Cl)cc2)c([N+](=O)[O-])s1` [2c, 4-[(4-Chlorophenylsulfonyl)methyl]-2-methyl-5-nitro-1,3-thiazole], the melting point was 180 °C. In addition, in the data set on HepG2 cells, the half-maximal cytotoxic concentration (CC50) came to 13.4 µM. The half-maximal cytotoxic concentration (CC50) in the data set on CHO cells is more than 62.5 µM.

As for `Cc1nc(CS(=O)(=O)c2ccc(Br)cc2)c([N+](=O)[O-])s1` [2d, 4-[(4-Bromophenylsulfonyl)methyl]-2-methyl-5-nitro-1,3-thiazole], in the data set with HepG2 cells, the 50% cytotoxic concentration (CC50) turned out to be 11.7 µM and the “antiproliferative effect times higher toward the HepG2 than toward the CHO cell line” value stood at 43 times. For the same compound, the 50% cytotoxic concentration (CC50) in the data set with CHO cells was more than 500 µM.

With `Cc1nc(CS(=O)(=O)c2ccc(F)cc2)c([N+](=O)[O-])s1` [2e, 4-[(4-Fluorophenylsulfonyl)methyl]-2-methyl-5-nitro-1,3-thiazole], the CC50 in the data set on HepG2 cells turned out to be 19.3 µM; in the data set with CHO cells, 229 µM.

Consider `Cc1nc(CS(=O)(=O)c2cccc(F)c2)c([N+](=O)[O-])s1` [2f, 4-[(3-Fluorophenylsulfonyl)methyl]-2-methyl-5-nitro-1,3-thiazole], for which the melting point was found to be 154 °C. Besides, in the data set on HepG2 cells, the CC50 was 23.6 µM. Moreover, the CC50 in the data set with CHO cells was 321 µM.

`Cc1nc(CS(=O)(=O)c2cccc(C(F)(F)F)c2)c([N+](=O)[O-])s1` [2g, 2-Methyl-5-nitro-4-{[3-(trifluoromethyl)phenylsulfonyl]methyl}-1,3-thiazole] had a melting point of 121 °C. Moreover, in the data set on HepG2 cells, the half-maximal cytotoxic concentration (CC50) turned out to be 25.6 µM. In the data set on CHO cells, the half-maximal cytotoxic concentration (CC50) was 139 µM.

Regarding `COc1ccc(S(=O)(=O)Cc2nc(C)sc2[N+](=O)[O-])cc1` [2h, 4-[(4-Methoxyphenylsulfonyl)methyl]-2-methyl-5-nitro-1,3-thiazole], the half-maximal cytotoxic concentration (CC50) in the data set with HepG2 cells was 20.6 µM; in the data set with CHO cells it was 137 µM.

For the compound `CCc1ccc(S(=O)(=O)Cc2nc(C)sc2[N+](=O)[O-])cc1` [2i, 4-[(4-Ethylphenylsulfonyl)methyl]-2-methyl-5-nitro-1,3-thiazole], in the data set with HepG2 cells, the “antiproliferative activity on HepG2 cells (in words)” value is given as “no activity was observed” and the CC50 was 239 µM. For the same compound, in the data set on CHO cells, the “antiproliferative activity on CHO cells (in words)” value was “no activity was observed” and the CC50 was more than 500 µM.

Turning to `Cc1nc(CS(C)(=O)=O)c([N+](=O)[O-])s1` [2j, 2-Methyl-4-(methylsulfonylmethyl)-5-nitro-1,3-thiazole], the melting point came out at 127 °C. Besides, in the data set on HepG2 cells, the “antiproliferative activity on HepG2 cells (in words)” value is given as “no activity was observed” and the half-maximal cytotoxic concentration (CC50) is more than 250 µM. Besides, in the data set with CHO cells, the “antiproliferative activity on CHO cells (in words)” value is “no activity was observed” and the CC50 is more than 250 µM.

`Cc1nc(CS(=O)(=O)c2ccc(Br)s2)c([N+](=O)[O-])s1` [2k, 4-[(5-Bromothiophen-2-ylsulfonyl)methyl]-2-methyl-5-nitro-1,3-thiazole]: the CC50 in the data set with HepG2 cells worked out at 13.8 µM; with CHO cells it was 47.3 µM.

Compound `Cc1nc(CS(=O)(=O)c2ccc3ccccc3c2)c([N+](=O)[O-])s1` [2l, 2-Methyl-4-[(naphtalen-2-ylsulfonyl)methyl]-5-nitro-1,3-thiazole] registered a melting point of 163 °C. In addition, the CC50 in the data set with HepG2 cells amounted to 8.5 µM. In the data set with CHO cells, the 50% cytotoxic concentration (CC50) was determined as 106 µM.

The compound `Cc1nc(C(Cl)(Cl)S(=O)(=O)c2ccccc2)c([N+](=O)[O-])s1` [3a, 4-[Dichloro(phenylsulfonyl)methyl]-2-methyl-5-nitro-1,3-thiazole] displayed a melting point of 169 °C. For the same compound, the CC50 in the data set with HepG2 cells turned out to be 1.2 µM. Besides, the CC50 in the data set with CHO cells was found to be 2.5 µM.

`Cc1ccc(S(=O)(=O)C(Cl)(Cl)c2nc(C)sc2[N+](=O)[O-])cc1` [3b, 4-[Dichloro(tosyl)methyl]-2-methyl-5-nitro-1,3-thiazole]: the CC50 with HepG2 cells was 1 µM; in the data set on CHO cells it was 1.2 µM.

As for `Cc1nc(C(Cl)(Cl)S(=O)(=O)c2ccc(Cl)cc2)c([N+](=O)[O-])s1` [3c, 4-[Dichloro(4-chlorophenylsulfonyl)methyl]-2-methyl-5-nitro-1,3-thiazole], the half-maximal cytotoxic concentration (CC50) turned out to be 1.1 µM in the data set on HepG2 cells and 1.4 µM in the data set with CHO cells.

On to `Cc1nc(C(Cl)(Cl)S(=O)(=O)c2ccc(Br)cc2)c([N+](=O)[O-])s1` [3d, 4-[(4-Bromophenylsulfonyl)dichloromethyl]-2-methyl-5-nitro-1,3-thiazole], for which the melting point was 165 °C. For the same compound, in the data set on HepG2 cells, the 50% cytotoxic concentration (CC50) was 1.2 µM. Besides, the CC50 in the data set on CHO cells amounted to 1.3 µM.

Compound `Cc1nc(C(Cl)(Cl)S(=O)(=O)c2ccc(F)cc2)c([N+](=O)[O-])s1` [3e, 4-[Dichloro(4-fluorophenylsulfonyl)methyl]-2-methyl-5-nitro-1,3-thiazole] displayed a melting point of 145 °C. Moreover, in the data set with HepG2 cells, the CC50 is 1.2 µM. The CC50 with CHO cells worked out at 1.3 µM.

Regarding `COc1cccc2c1C(=O)c1c(O)c3c(c(O)c1C2=O)C[C@@](O)(C(=O)CO)C[C@@H]3O[C@H]1C[C@H](N)[C@H](O)[C@H](C)O1` [Doxorubicin, reference compound], the CC50 is 0.2 µM in the data set with HepG2 cells and 0.6 µM in the data set on CHO cells.

Source of the values: paper PMC6270398, “Synthesis and Promising in Vitro Antiproliferative Activity of Sulfones of a 5-Nitrothiazole Series” (Molecules, 2012).
